Source: publication PMC9381947 (Antiviral Research, 2022)

Legend:
NSP13 E319A = assay type: biochemical, SARS-CoV-2
NSP13 E375A = assay type: biochemical, SARS-CoV-2

Structure (SMILES): O=C1O[C@@H]2[C@@H](OC(=O)c3cc(O)c(O)c(O)c3-c3c1cc(O)c(O)c3O)[C@H](O)O[C@@H]1COC(=O)c3cc(O)c(O)c(O)c3-c3c(O)c(O)c4oc(=O)c5c(c(O)c(O)c6oc(=O)c3c4c65)-c3c(cc(O)c(O)c3O)C(=O)O[C@@H]21 [Punicalagin, 2,3-hexahydroxydiphenoyl-gallagyl-D-glucose]
- reduction of the inhibitory potency compared to wild type (NSP13 E319A): about 2 fold
- reduction of the inhibitory potency compared to wild type (NSP13 E375A): about 2 fold
